Values after ≈ are worked out from the molar mass of the structure shown.

Data on three compounds can be found in DBAASP.

Test systems include Escherichia coli DC2; Escherichia coli UB1005; Candida albicans C627; Escherichia coli K88.
Common to all, as to experiment: ≥ marks a high value that may be exact or a test limit, other limits are often not marked, values filed in µg/mL are converted to µM
The test system of test [1] is Salmonella enterica subsp. enterica serovar Typhimurium ATCC 14028s.
Test [2] has as its system Staphylococcus epidermidis C621.
Test [3] concerns Salmonella enterica serovar typhimurium MS7953s.
Test [4] relates to Escherichia coli CGSC 4908.
Test [5] relates to Aeromonas salmonicida 97-4.
In test [6] the test system is Pseudomonas aeruginosa K799.
Test [7] has as its system Staphylococcus aureus C623.
The test system of test [8] is Aeromonas salmonicida 99-1.
In test [9] the test system is Pseudomonas aeruginosa Z61.
In test [10] the test system is Salmonella enterica subsp. enterica serovar Pullorum C79-13.
For test [11], the system named is Lacticaseibacillus rhamnosus 1.0936.
For test [12], the system named is Lacticaseibacillus rhamnosus 8014.
The test system of test [13] is Pseudomonas aeruginosa PAO1.
Test [14] relates to Salmonella enterica subsp. enterica serovar Typhimurium ATCC 14028.
The test system of test [15] is Staphylococcus epidermidis ATCC 12228.
The test system of test [16] is Salmonella enterica subsp. enterica serovar Choleraesuis CVCC 503.
Test [17] concerns Pseudomonas aeruginosa ATCC 27853.
Test [18] concerns Streptococcus agalactiae BNCC 185941.
Test [19] deals with Staphylococcus aureus ATCC 29213.
Test [20] relates to Staphylococcus aureus ATCC 43300.
Test [21] relates to Escherichia coli O157:H7 CICC 21530.
Test [22] deals with Lacticaseibacillus rhamnosus 1.9021.
Test [23] has as its system Lacticaseibacillus rhamnosus 1.0911.
The subject of test [24] is Mycobacterium tuberculosis H37Rv.
In test [25] the test system is Mycobacterium tuberculosis WXY.
Test [26] concerns Mycobacterium tuberculosis CAS3.

The MIC is the smallest concentration in the dilution series that meets the test's criterion for growth inhibition. For the compound `CC(=O)[C@H](C)NC(=O)[C@H](Cc1ccccc1)NC(=O)[C@H](Cc1cnc[nH]1)NC(=O)[C@H](CCCNC(=N)N)NC(=O)[C@H](CCC(N)=O)NC(=O)[C@H](CO)NC(=O)[C@H](CC(C)C)NC(=O)[C@H](CCCNC(=N)N)NC(=O)[C@H](CCC(=O)O)NC(=O)CNC(=O)[C@H](CCCCN)NC(=O)[C@@H](NC(=O)[C@H](Cc1ccccc1)NC(=O)[C@H](Cc1c[nH]c2ccccc12)NC(=O)[C@H](CCCCN)NC(=O)[C@H](CCCCN)NC(=O)[C@H](Cc1c[nH]c2ccccc12)NC(=O)CN)[C@@H](C)O` [GWKKWFTKGERLSQRHFA], the MIC in [1] was 28.3 µM (≈ 63.9 µg/mL); in test [2], 28.3 µM (≈ 63.9 µg/mL); in [3], 14.1 µM (≈ 32 µg/mL); in test [4] it was 28.3 µM (≈ 63.9 µg/mL); in test [5], no less than 56.6 µM; in test [6], 28.3 µM (≈ 63.9 µg/mL). The MIC (in the test on Escherichia coli DC2; in test [7]; in the test on Escherichia coli UB1005; in test [8]; in test [9]; in the test on Candida albicans C627) was 28.3 µM (≈ 63.9 µg/mL) throughout.
On to `CC(C)C[C@H](NC(=O)[C@H](CCCCN)NC(=O)CNC(=O)[C@H](CCCCN)NC(=O)[C@H](CC(C)C)NC(=O)[C@H](Cc1c[nH]c2ccccc12)NC(=O)[C@H](CC(C)C)NC(=O)[C@H](CCCCN)NC(=O)CNC(=O)[C@H](CCCCN)NC(=O)[C@@H](N)CC(C)C)C(N)=O` [LKGKLWLKGKL], for which the MIC in [10] is 8 µM (≈ 10.3 µg/mL); in test [11] it was no less than 128 µM; in test [12], no less than 128 µM; in test [13] it was 32 µM (≈ 41 µg/mL); in test [14] it was 64 µM (≈ 82.1 µg/mL); in [15] it was greater than 128 µM. For the same compound, the MIC is no less than 128 µM in [16]; 32 µM (≈ 41 µg/mL) in [17]; no less than 128 µM in [18]; greater than 128 µM in [19]; greater than 128 µM in test [20]; 8 µM (≈ 10.3 µg/mL) against Escherichia coli K88. Moreover, the MIC in test [21] is no less than 64 µM; in [22] it was no less than 128 µM; in test [23], no less than 128 µM.
On to `CC(C)C[C@H](NC(=O)[C@H](C)NC(=O)[C@H](C)NC(=O)[C@@H](NC(=O)[C@H](C)N)C(C)C)C(=O)N[C@@H](CC(C)C)C(=O)N[C@@H](CCCN=C(N)N)C(=O)N[C@@H](Cc1c[nH]c2ccccc12)C(=O)N[C@@H](Cc1c[nH]c2ccccc12)C(=O)N[C@@H](CO)C(=O)N[C@@H](CCCN=C(N)N)C(=O)N[C@@H](Cc1c[nH]c2ccccc12)C(=O)N[C@@H](Cc1c[nH]c2ccccc12)C(=O)N[C@@H](C)C(=O)N[C@@H](C)C(=O)O` [AVAALLRWWSRWWAA], for which the MIC in test [24], in test [25] and in test [26] was no less than 40.7 µM each time.
